Where a name gives a salt, the structure may show the parent alone.

This passage reports IC50 results from patent publication US9555022B2, “Substituted triazolopyridines” (Bayer Intellectual Property GmbH, priority 2010, dated 2017).

In this test the target is human full length recombinant Mps-1 kinase (Homo sapiens (Human), UniProt P33981). Description: Mps-1 Kinase Assay (TR-FRET). The following applies: 10 μM ATP, 1 μM biotinylated peptide substrate, 60 min at 22° C., read-out: Mps-1 Inhibition, IC50 in M. The test is classed as biochemical. As to the method: The human kinase Mps-1 phosphorylates a biotinylated substrate peptide. Detection of the phosphorylated product is achieved by time-resolved fluorescence resonance energy transfer (TR-FRET) from Europium-labelled anti-phospho-Serine/Threonine antibody as donor to streptavidin labelled with cross-linked allophycocyanin (SA-XLent) as acceptor. Compounds are tested for their inhibition of the kinase activity.
human full length recombinant Mps-1 kinase, sequence (P33981 whole entry): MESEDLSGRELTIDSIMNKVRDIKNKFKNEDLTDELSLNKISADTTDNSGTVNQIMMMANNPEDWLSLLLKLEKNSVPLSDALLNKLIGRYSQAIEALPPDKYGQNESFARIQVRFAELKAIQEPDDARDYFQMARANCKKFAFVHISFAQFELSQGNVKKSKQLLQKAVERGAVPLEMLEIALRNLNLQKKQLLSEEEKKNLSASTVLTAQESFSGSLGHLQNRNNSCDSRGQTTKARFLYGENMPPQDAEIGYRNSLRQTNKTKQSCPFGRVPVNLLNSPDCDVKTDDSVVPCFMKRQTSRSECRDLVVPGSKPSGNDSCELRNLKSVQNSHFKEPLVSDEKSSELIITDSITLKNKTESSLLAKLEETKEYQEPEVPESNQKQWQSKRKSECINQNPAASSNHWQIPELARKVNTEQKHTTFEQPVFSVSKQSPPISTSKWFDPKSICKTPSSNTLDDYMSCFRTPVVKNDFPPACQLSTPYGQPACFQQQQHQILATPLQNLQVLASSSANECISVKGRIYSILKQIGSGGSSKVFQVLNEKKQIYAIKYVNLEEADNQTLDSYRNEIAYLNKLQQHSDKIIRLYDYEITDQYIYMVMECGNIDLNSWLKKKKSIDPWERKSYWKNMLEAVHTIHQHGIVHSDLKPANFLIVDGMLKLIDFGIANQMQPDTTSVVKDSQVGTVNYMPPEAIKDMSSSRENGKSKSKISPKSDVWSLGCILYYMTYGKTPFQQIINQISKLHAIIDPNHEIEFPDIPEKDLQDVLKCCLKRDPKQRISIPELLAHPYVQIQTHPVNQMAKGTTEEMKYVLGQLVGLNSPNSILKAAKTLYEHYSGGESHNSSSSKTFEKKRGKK
N-terminally GST-tagged human full length recombinant Mps-1 kinase (purchased from Invitrogen, Karslruhe, Germany, cat. no PV4071) was used. As substrate for the kinase reaction a biotinylated peptide of the amino-acid sequence […] (C-terminus in amide form, purchased from Biosynthan GmbH, Berlin) was used.
The concentration of Mps-1 in the assay was adjusted to the activity of the enzyme lot and was chosen appropriate to have the assay in the linear range, typical enzyme concentrations were in the range of about 1 nM (final conc. in the 5 μl assay volume).
The resulting mixture was incubated 1 h at 22° C. to allow the binding of the phosphorylated peptide to the anti-phospho(Ser/Thr)-Europium-antibody. Subsequently the amount of phosphorylated substrate was evaluated by measurement of the resonance energy transfer from the Europium-labelled anti-phospho(Ser/Thr) antibody to the Streptavidin-XLent.
Background: Time-resolved FRET reads energy transfer from a long-lived donor to a nearby acceptor.
For `CCOc1cc(C(=O)N2CC3(COC3)C2)ccc1Nc1nc2ccc(-c3ccc(NC(=O)Cc4ccc(F)cc4)cc3)cn2n1` [Example 02.23, N-[4-(2-{[2-ethoxy-4-(2-oxa-6-azaspiro[3.3]hept-6-ylcarbonyl)phenyl]amino}[,2]triazolo[1,5-a]pyridin-6-yl)phenyl]-2-(4-fluorophenyl)acetamide], the IC50 is not above 1 nM. Under `CCOc1cc(C(=O)N2CC(O)C2)ccc1Nc1nc2ccc(-c3ccc(NC(=O)Cc4ccc(F)cc4)cc3)cn2n1` [Example 02.24, N-{4-[2-({2-ethoxy-4-[(3-hydroxyazetidin-1-yl)carbonyl]phenyl}amino)[,2]triazolo[1,5-a]pyridin-6-yl]phenyl}-2-(4-fluorophenyl)acetamide] stands not above 1 nM; under `CCOc1cc(C(=O)NC2CCN(C)CC2)ccc1Nc1nc2ccc(-c3ccc(NC(=O)Cc4ccc(F)cc4)cc3)cn2n1` [Example 02.25, 3-ethoxy-4-{[6-(4-{[(4-fluorophenyl)acetyl]amino}phenyl)[,2]-triazolo[1,5-a]pyridin-2-yl]amino}-N-(1-methylpiperidin-4-yl)benzamide], not above 1 nM; under `O=C(Cc1ccc(F)cc1)Nc1ccc(-c2ccc3nc(Nc4ccc(C(=O)N5CC6(COC6)C5)cc4OCC(F)(F)F)nn3c2)cc1` [Example 02.26, 2-(4-fluorophenyl)-N-[4-(2-{[4-(2-oxa-6-azaspiro[3.3]hept-6-ylcarbonyl)-2-(2,2,2-trifluoroethoxy)phenyl]amino}[,2]triazolo[1,5-a]pyridin-6-yl)phenyl]acetamide], not above 1 nM. Turning to `O=C(Cc1ccc(F)cc1)Nc1ccc(-c2ccc3nc(Nc4ccc(C(=O)N5CC(O)C5)cc4OCC(F)(F)F)nn3c2)cc1` [Example 02.27, 2-(4-fluorophenyl)-N-{4-[2-({4-[(3-hydroxyazetidin-1-yl)carbonyl]-2-(2,2,2-trifluoroethoxy)phenyl}amino)[,2]triazolo[1,5-a]pyridin-6-yl]phenyl}acetamide], the IC50 is not above 1 nM. As for `COc1cc(N2CCN(C)CC2)ccc1Nc1nc2ccc(-c3ccc(NC(=O)Cc4ccc(F)cc4)cc3)cn2n1` [Example 02.28, 2-(4-fluorophenyl)-N-[4-(2-{[2-methoxy-4-(4-methylpiperazin-1-yl)phenyl]amino}[,2]-triazolo[1,5-a]pyridin-6-yl)phenyl]acetamide], the IC50 is not above 1 nM. Take `O=C(Cc1ccc(F)cc1)Nc1ccc(-c2ccc3nc(Nc4ccc(C(=O)N5CC6(COC6)C5)cc4OCCF)nn3c2)cc1` [Example 02.30, N-[4-(2-{[2-(2-fluoroethoxy)-4-(2-oxa-6-azaspiro[3.3]hept-6-ylcarbonyl)phenyl]amino}[,2]triazolo[1,5-a]pyridin-6-yl)phenyl]-2-(4-fluorophenyl)acetamide]: the IC50 is not above 1 nM.

On to `O=C(Cc1ccc(F)cc1)Nc1ccc(-c2ccc3nc(Nc4ccc(C(=O)N5CCOCC5)cc4OCC(F)F)nn3c2)cc1` [Example 02.31, N-[4-(2-{[2-(2,2-difluoroethoxy)-4-(morpholin-4-ylcarbonyl)phenyl]amino}[,2]-triazolo[1,5-a]pyridin-6-yl)phenyl]-2-(4-fluorophenyl)acetamide], for which the IC50 was not above 1 nM.

As for `O=C(Cc1ccc(F)cc1)Nc1ccc(-c2ccc3nc(Nc4ccc(C(=O)N5CCOCC5)cc4C(F)(F)F)nn3c2)cc1` [Example 02.32, 2-(4-fluorophenyl)-N-[4-(2-{[4-(morpholin-4-ylcarbonyl)-2-(trifluoromethyl)phenyl]amino}[,2]-triazolo[1,5-a]pyridin-6-yl)phenyl]acetamide], the IC50 was not above 1 nM. Under `COc1cc(CN2CCOCC2)ccc1Nc1nc2ccc(-c3ccc(NC(=O)Cc4ccc(F)cc4)cc3)cn2n1` [Example 02.33, 2-(4-fluorophenyl)-N-[4-(2-{[2-methoxy-4-(morpholin-4-ylmethyl)phenyl]amino}[,2]-triazolo[1,5-a]pyridin-6-yl)phenyl]acetamide] stands not above 1 nM. `CCOc1cc(OC2CCN(C)CC2)ccc1Nc1nc2ccc(-c3ccc(NC(=O)Cc4ccc(F)cc4)cc3)cn2n1` [Example 02.34, N-{4-[2-({2-ethoxy-4-[(1-methylpiperidin-4-yl)oxy]phenyl}amino)[,2]triazolo[1,5-a]pyridin-6-yl]phenyl}-2-(4-fluorophenyl)acetamide]: the IC50 is not above 1 nM. Under `COc1cc(OC2CCN(C)CC2)ccc1Nc1nc2ccc(-c3ccc(NC(=O)Cc4ccc(F)cc4)cc3)cn2n1` [Example 02.35, 2-(4-fluorophenyl)-N-{4-[2-({2-methoxy-4-[(1-methylpiperidin-4-yl)oxy]phenyl}amino)[,2]triazolo[1,5-a]pyridin-6-yl]phenyl}acetamide] stands not above 1 nM; under `CSc1cc(OC2CCN(C)CC2)ccc1Nc1nc2ccc(-c3ccc(NC(=O)Cc4ccc(F)cc4)cc3)cn2n1` [Example 02.36, 2-(4-fluorophenyl)-N-{4-[2-({4-[(1-methylpiperidin-4-yl)oxy]-2-(methylsulfanyl)phenyl}amino)[,2]triazolo[1,5-a]pyridin-6-yl]phenyl}acetamide], not above 1 nM; under `COc1cc(S(=O)(=O)N2CCOCC2)ccc1Nc1nc2ccc(-c3ccc(NC(=O)Cc4ccc(F)cc4)cc3)cn2n1` [Example 02.37, 2-(4-fluorophenyl)-N-[4-(2-{[2-methoxy-4-(morpholin-4-ylsulfonyl)phenyl]amino}[,2]-triazolo[1,5-a]pyridin-6-yl)phenyl]acetamide], not above 1 nM. Then `Cc1cc(C(=O)N2CC3(COC3)C2)ccc1Nc1nc2ccc(-c3ccc(NC(=O)Cc4ccc(F)cc4)cc3)cn2n1` [Example 02.38, 2-(4-fluorophenyl)-N-[4-(2-{[2-methyl-4-(2-oxa-6-azaspiro[3.3]hept-6-ylcarbonyl)phenyl]amino}[,2]triazolo[1,5-a]pyridin-6-yl)phenyl]acetamide], with not above 1 nM. For the compound `Cc1cc(C(=O)N2CCOCC2)ccc1Nc1nc2ccc(-c3ccc(NC(=O)Cc4ccc(F)cc4)cc3)cn2n1` [Example 02.39, 2-(4-fluorophenyl)-N-[4-(2-{[2-methyl-4-(morpholin-4-ylcarbonyl)phenyl]amino}[,2]-triazolo[1,5-a]pyridin-6-yl)phenyl]acetamide], the IC50 was not above 1 nM. Then `O=C(Cc1ccc(F)cc1)Nc1ccc(-c2ccc3nc(Nc4ccc(C(=O)N5CC6(COC6)C5)cc4OC(F)(F)F)nn3c2)cc1` [Example 02.40, 2-(4-fluorophenyl)-N-[4-(2-{[4-(2-oxa-6-azaspiro[3.3]hept-6-ylcarbonyl)-2-(trifluoromethoxy)phenyl]amino}[,2]triazolo[1,5-a]pyridin-6-yl)phenyl]acetamide], with not above 1 nM. Under `COc1ccc(C(=O)N2CCOCC2)cc1Nc1nc2ccc(-c3ccc(NC(=O)Cc4ccc(F)cc4)cc3)cn2n1` [Example 02.41, 2-(4-fluorophenyl)-N-[4-(2-{[2-methoxy-5-(morpholin-4-ylcarbonyl)phenyl]amino}[,2]-triazolo[1,5-a]pyridin-6-yl)phenyl]acetamide] stands not above 1 nM; under `Cc1nc(N2CCOCC2)ccc1Nc1nc2ccc(-c3ccc(NC(=O)Cc4ccc(F)cc4)cc3)cn2n1` [Example 02.42, 2-(4-fluorophenyl)-N-[4-(2-{[2-methyl-6-(morpholin-4-yl)pyridin-3-yl]amino}[,2]-triazolo[1,5-a]pyridin-6-yl)phenyl]acetamide], not above 1 nM.

With `Cc1nc(N2CCCC2)ccc1Nc1nc2ccc(-c3ccc(NC(=O)Cc4ccc(F)cc4)cc3)cn2n1` [Example 02.43, 2-(4-fluorophenyl)-N-[4-(2-{[2-methyl-6-(pyrrolidin-1-yl)pyridin-3-yl]amino}[,2]-triazolo[1,5-a]pyridin-6-yl)phenyl]acetamide], the IC50 is not above 1 nM.

For `COc1cc(C(=O)N2CCOCC2)ccc1Nc1nc2ccc(-c3ccc(C(=O)NCC4CC4)cc3)cn2n1` [Example 03.01, N-(cyclopropylmethyl)-4-(2-{[2-methoxy-4-(morpholin-4-ylcarbonyl)phenyl]amino}[,2]-triazolo[1,5-a]pyridin-6-yl)benzamide], the IC50 turned out to be 2.71 nM. Then `CCOc1cc(C(=O)N2CCOCC2)ccc1Nc1nc2ccc(-c3ccc(C(=O)NCC4CC4)cc3)cn2n1` [Example 03.02, N-(cyclopropylmethyl)-4-(2-{[2-ethoxy-4-(morpholin-4-ylcarbonyl)phenyl]amino}[,2]-triazolo[1,5-a]pyridin-6-yl)benzamide], with not above 1 nM; and `COc1cc(C2=NC(C)(C)CO2)ccc1Nc1nc2ccc(-c3ccc(C(=O)NCC4CC4)cc3)cn2n1` [Example 03.03, N-(cyclopropylmethyl)-4-(2-{[4-(4,4-dimethyl-4,5-dihydro-1,3-oxazol-2-yl)-2-methoxyphenyl]amino}[,2]-triazolo[1,5-a]pyridin-6-yl)benzamide], with 5.51 nM; and `CCOc1cc(C(=O)NC2CCN(C)CC2)ccc1Nc1nc2ccc(-c3ccc(C(=O)NCC4CC4)cc3)cn2n1` [Example 03.04, 4-[(6-{4-[(cyclopropylmethyl)carbamoyl]phenyl}[,2]triazolo[1,5-a]pyridin-2-yl)amino]-3-ethoxy-N-(1-methylpiperidin-4-yl)benzamide], with not above 1 nM.

For the compound `COc1cc(N2CCN(C)CC2)ccc1Nc1nc2ccc(-c3ccc(C(=O)NCC4CC4)cc3)cn2n1` [Example 03.05, N-(cyclopropylmethyl)-4-(2-{[2-methoxy-4-(4-methylpiperazin-1-yl)phenyl]amino}[,2]-triazolo[1,5-a]pyridin-6-yl)benzamide trifluoroacetate], the IC50 was found to be 6.33 nM.

Broadly, the IC50 is the point on the concentration scale where inhibition reaches its midpoint.
